Source: patent publication US5216142A, “Anti-virals” (Efamol Holdings plc, priority 1989, dated 1993)
≈ marks a conversion by molar mass, not a printed value. Entries after “also recorded” stand apart in the source; their conditions may differ. Read-outs that look alike come from different tables or passages of the source.

Experiments:
[1] = system: herpes simplex virus Type I; experiment: Inactivation of virus (30 minutes incubation, plaque assay); format: cell-based, Type 1, Troisbel strain; details: for Virus titre (inactivation of virus): 30 minutes, control 5.4 × 10^4 (GLA-alcohol), 4.5 × 10^4 (GLA-AZT)
Description: 1. A virus solution containing 2×10^5 pfu/ml is prepared in phosphate buffered saline (Dulbecco's A).
2. The compound to be tested is made up in Dulbecco's medium A in a suitable range of dilutions.
3. Equal volumes of the virus and drug solution are mixed together. Control solutions without drug are also used.
4. The virus and drug are incubated for an appropriate period of time, in this example, thirty minutes.
5. The numbers of active viral particles in the solution are assayed as in items 4 and 5 under A.
The results are shown below (Table 6). In the Table, the figures are concentrations of viral particles present after incubation of the virus for 30 minutes with solutions of the drugs.

Absolute solubilities = format: physicochemical
MT-4 cells = experiment: in vitro; format: cell-based; details: human, 120 h
Description: (§1) Results in relation to HIV virus were obtained by the method of Pauwels et al, Journal of Virological Methods 20, 309 to 321 (1988), as follows:
(§2) MT-4 cells (2.5×10^4 /well) were infected with HIV (100 CCID50) and incubated in the presence of varying concentrations of the test compounds (added immediately after virus infection). After five days incubation at 37° C. in a CO2 incubator, the number of viable cells was assessed by the MTT (tetrazolium) method. Anti-viral activity and cytotoxicity of the compounds are expressed as ED50 (50% effective dose) and CD50 (50% cytotoxic dose), respectively. SI (selectivity index=CD50 /ED50.

in vitro = format: cell-based; details: human, mt-4 cells, CD50 (50% cytotoxic dose)
Description: as §1, §2

LAV-2ROD = experiment: Anti-HIV activity assay, LAV-2ROD (MT-4 cells, MTT method); format: cell-based; details: for Selectivity index (SI): CD50/ED50, LAV-2ROD; for EC50: MT4, 120 h, read-out: ED50 (50% effective dose)
Description: as §1, §2
(§3) These are given in Table 8 and Table 9 below in relation to HTLV-IIIB and LAV-2ROD viruses.

[2] = system: herpes simplex virus Type I (HSV I); experiment: Inhibition of virus replication (plaque assay, BHK-21 cells); format: cell-based, Type 1, Troisbel strain; details: for log reduction at 0.1 µg/mL: 0.1 mg/l; for log reduction at 0.5 µg/mL: 0.5 mg/l; for Viral titre (inhibition of replication): control 9.0 × 10^8
Description: 1. Mono-layers of baby hamster kidney cells (BHK-21) are prepared in Petri dishes containing ETC medium (Eagle's minimal essential medium +10% tryptose phosphate broth +10% new born calf serum).
2. After incubation the medium is poured off to leave the layer of cells attached to the Petri dish. A solution containing virus, specifically herpes simplex virus Type I (HSV I) for example, in ETC medium is then added to the dish and incubated with intermittent rocking for one hour to allow the virus to adsorb to the cells of the mono-layer. Unadsorbed virus is then removed by pouring off the virus-containing medium and washing twice with new sterile medium. Then new medium is added to each Petri dish. At this stage various concentrations of drug can be added to the medium.
3. […] First the dishes are frozen to -70° C. and thawed to disrupt the mono-layer and break up the cells. Then the medium and the disrupted cells are transferred to bijou bottles and sonicated to break down the cells completely and to release all the virus particles the cells contain. The sonicated medium is then diluted with fresh sterile ETC medium to give concentrations of the original Petri dish fluid of 10^-2, 10^-4, 10^-6 and 10^-8.
4. The number of virus particles (plaque forming units) in the dilutions is then assayed. A standard number of BHK cells (usually 8×10^6) is added to 2 ml of the diluted solutions and incubated for one hour, with cautious, gentle shaking, and 8 ml of Eagle's minimal essential medium +2% new born calf serum + carboxymethyl cellulose is then added to the cell suspension. This medium has gelling properties which prevent spreading of the virus through the medium and which encourage the formation of discrete plaques in cell mono-layers. The medium from each dilution is then dispensed into Petri dishes and incubated for two to three days.
5. The number of plaques formed is then counted and the amount of active virus expressed as the number of plaque forming units (pfus) as follows. The medium is poured off and the cell mono-layer is fixed using 10% formol saline and stained with dilute carbol fuchsin. The number of plaques in each Petri dish is counted. Based on the dilutions, the number of plaque forming virus particles in the original solutions is calculated.
In the Table, the figures are the concentration of viral particles in pfu/ml present in the cells + medium at the end of the replication stage (3).

HTLV-IIIB = experiment: Anti-HIV activity assay, HTLV-IIIB (MT-4 cells, MTT method); format: cell-based; details: for Selectivity index (SI): CD50/ED50, HTLV-IIIB; for EC50: Human immunodeficiency virus 1, MT4, 120 h, MT-4 cells, five days, HTLV-IIIB, read-out: ED50 (50% effective dose)
Description: as §1, §2, §3

viral polymerases = details: tested lacking the phosphate groups; cited from earlier work
[3] = system: herpes simplex virus Type I; details: known, e.g. E. de Klerk et al 1980; cited from earlier work
[4] = system: herpes simplex virus Type I (HSV I); details: cited from earlier work; for Activity against herpes viruses (in words): herpes zoster and herpes simplex
[5] = cited from earlier work
herpes simplex = experiment: Topical application to herpetic lesion; format: in vivo, human; details: ointment or cream 2% by weight, 1 to 5 mg/cm^2 three times daily for one week; after three days
Description: Example (6) Ointment or cream for topical administration against herpes simplex, containing 2% by weight GLA-AZT. It may be applied to a human afflicted with a herpetic lesion at the afflicted sites at a rate of 1 to 5 mg/cm^2 three times daily for a period of one week.

adenosine deaminase = details: human plasma; cited from earlier work
[6] = chloroform, organic solvent or mixture, CHCl3 98 to 99% pure, with 1% balance ethanol to stabilise, read-out: Absolute solubility in CHCl3
[7] = in water, read-out: Absolute solubility in water
[8] = Human alphaherpesvirus 1, BHK-21, 24 h, read-out: Inhibition of viral replication (log10 reduction in virus titre)
[9] = MT-4 cells, five days, LAV-2ROD

Structure (SMILES)	Inactivation of virus (in words) ([1]; up to 50 mg/l)	solubility (Absolute solubilities; [6]) [µg/mL]	solubility (Absolute solubilities; [7]) [µg/mL]	CD50 (50% cytotoxic dose) (MT-4 cells) [µg/mL]	CC50 at 120 h (in vitro) [µg/mL]	Selectivity index (SI) (LAV-2ROD)	Selectivity index (SI) (HTLV-IIIB)	EC50 (HTLV-IIIB) [µg/mL]	% in chloroform phase (partition co-efficients, water/chloroform) [%]	Virucidal activity / inactivation of herpes virus (in words) [1]	EC50 (LAV-2ROD; [9]) [µg/mL]	other results
Nc1nc2c(ncn2COCCO)c(=O)[nH]1 [AK 9, Acyclovir, reference compound]	no inactivation	6 (≈ 26.6 µM)	1590 (≈ 7060 µM)	397.5805	300 (≈ 1330 µM)	< 1	< 1	> 1000	1			EC50 (LAV-2ROD): > 10000 µg/mL; log reduction at 0.1 µg/mL [2, 8]: 2; log reduction at 0.5 µg/mL [2, 8]: 2.3; Activity against viral polymerases (in words) (viral polymerases): inactive
Cc1cn([C@H]2C[C@H](N=[N+]=[N-])[C@@H](CO)O2)c(=O)[nH]c1=O [AK 7, zidovudine, reference compound]	no inactivation			1.5633	1.54 (≈ 5.75 µM)	2928	4131	0.000372 (≈ 0.00139 µM)	15	no effect	0.00053 (≈ 0.00198 µM)	Effect on inactivation of herpes simplex virus (in words) [3]: no effect; Activity against herpes viruses (in words) [4]: inactive; Effect on replication of herpes simplex virus (in words) ([4]; known, e.g. E. de Klerk et al 1980): no effect; Inhibition of herpes virus replication (in words) ([2]; listed as AZT): no effect; also recorded: not found; Inhibition of viral replication (in words) ([2]; up to 100 mg/l): No inhibition; Excreted unchanged into the urine ([5]; in vivo): Fifteen to twenty; Metabolised by hepatic glucuronidation ([5]; to 3'-azido-2'-3'-dideoxy-5'-glucuronyl thymidine): seventy five; Activity against viral polymerases (in words) (viral polymerases): inactive
Cc1cn2c(nc1=O)O[C@@H]1C[C@H]2O[C@@H]1CO [AK 8, Anhydrothymidine, reference compound]						15	59	13.1 (≈ 58.4 µM)	4	no effect	21.8 (≈ 97.2 µM)	Inactivation of virus (in words) ([1]; 10 mg/l): no inactivation; log reduction at 25 µg/mL ([1]; Human alphaherpesvirus 1, 0.5 h, 25 mg/l, read-out: Inactivation of virus (log10 reduction in virus titre)): 0.7; Activity against herpes viruses (in words) [4]: inactive; Inhibition of herpes virus replication (in words) [2]: no effect; Inhibition of viral replication (in words) ([2]; concentration not given, Table 7): no inhibition
CCCCC/C=C\C/C=C\CCCCCCCC(=O)OCCOCn1cnc2c(=O)[nH]c(N)nc21 [AK 6]	no inactivation	> 50000	14 (≈ 28.7 µM)			< 1	< 1	> 40	> 99	lacking in this activity	> 100	log reduction at 1 µg/mL ([2]; Human alphaherpesvirus 1, BHK-21, 24 h, 1 mg/l, read-out: Inhibition of viral replication (log10 reduction in virus titre)): 2.4; log reduction at 5 µg/mL ([2]; Human alphaherpesvirus 1, BHK-21, 24 h, 5 mg/l, read-out: Inhibition of viral replication (log10 reduction in virus titre)): 4.2
CCCCC/C=C\C/C=C\C/C=C\CCCCC(=O)OC[C@H]1O[C@@H](n2cc(C)c(=O)[nH]c2=O)C[C@@H]1N=[N+]=[N-] [AK 1, GLA - 3'azido-3'-deoxythymidine]				8.3825	6.03 (≈ 11.4 µM)	9770	7993	0.000754 (≈ 0.00143 µM)	> 99	virucidal	0.000858 (≈ 0.00163 µM)	Virus titre (inactivation of virus) ([1]; 5 μg/ml): 2.7 × 10^3; Virus titre (inactivation of virus) ([1]; 25 μg/ml): < 1.0 × 10^2; log reduction at 1 µg/mL ([1]; Human alphaherpesvirus 1, 0.5 h, 1 mg/l, read-out: Inactivation of virus (log10 reduction in virus titre)): 1; log reduction at 5 µg/mL ([1]; Human alphaherpesvirus 1, 0.5 h, 5 mg/l, read-out: Inactivation of virus (log10 reduction in virus titre)): 2; Virucidal activity / inactivation of herpes virus (in words) ([1]; listed as AZT-GLA): able both to inactivate the herpes virus; Virucidal activity / inactivation of herpes virus (in words) ([1]; listed as GLA-AZT): more effective; Viral titre (inhibition of replication) ([2]; 25 μg/ml (47.5 × 10^-6 molar)): 1.02 × 10^8 pfu/ml; Viral titre (inhibition of replication) ([2]; 50 μg/ml (95.0 × 10^-6 molar)): < 1.0 × 10^2 pfu/ml; Inhibition of herpes virus replication (in words) ([2]; listed as AZT-GLA): to inhibit its replication; Inhibition of herpes virus replication (in words) ([2]; listed as GLA-AZT): able to inhibit viral replication effectively; also recorded: gains the property of inhibiting herpes virus replication; Inhibition of viral replication (in words) ([2]; up to 100 mg/l): no inhibition; Reduction in the size of the lesion (herpes simplex): Reduction in the size of the lesion is noted
Nc1ncnc2c1ncn2[C@H]1CC[C@@H](CO)O1 [ddA]												Conversion of ddA to ddI (adenosine deaminase): within minutes
CCCCC/C=C\C/C=C\C/C=C\CCCCC(=O)OCCOCn1cnc2c(=O)[nH]c(N)nc21 [AK 5]	no inactivation	> 50000	28 (≈ 57.7 µM)	18.7751	17.2 (≈ 35.4 µM)	< 1	< 1	> 40	> 99	lacking in this activity	> 40	log reduction at 0.1 µg/mL [2, 8]: 1; log reduction at 0.5 µg/mL [2, 8]: 2.2
